Assays:
DIO mice [1] = experiment: Blood glucose following OGTT (AUC) in diet-induced obesity model; type: in vivo; conditions: 4 weeks, p<0.01
ob/ob mice [2] = experiment: Blinded histological scoring of liver (fat content, markers of inflammation) in ob/ob mice; conditions: 3 mg/kg/d, 14 d, n=9, p<0.01 vs. control 3±0.18
ob/ob mice [3] = experiment: Blood glucose AUC in ob/ob mice after 14 d linagliptin; conditions: 3 mg/kg/d
DIO mice [4] = experiment: Liver fat content by magnetic resonance spectroscopy (MRS) in diet-induced obesity model; type: in vivo
Source text: Hepatic steatosis is a hallmark of patients with type 2 diabetes and underlies the pathogenesis of non-alcoholic fatty liver disease (NAFLD). Linagliptin is a selective and non-renal excreted inhibitor of dipeptidyl peptidase-4 (DPP-4). […]. Liver lipid content is detected by magnetic resonance spectroscopy (MRS) in vivo and ex vivo by analysis of liver triglycerides. […]. […] A significant reduction of liver fat content (MRS) is visible as early as 2 weeks on treatment. The correlation between liver lipid content as measured by MRS and hepatic triglyceride levels as measured ex vivo is r2=0.565 (p<0.0001).

[5] = metformin on its own, in the diabetic; cited from earlier work

SMILES	Blood glucose levels following an OGTT (AUC) suppressed (DIO mice [1]; 3 mg/kg/d)	Blood glucose levels following an OGTT (AUC) suppressed (DIO mice [1]; 30 mg/kg/d)	Histological score (hepatic steatosis and inflammation) (ob/ob mice [2])	Blood glucose AUC reduction (ob/ob mice [3]) [%]	Time on treatment at which significant reduction of liver fat content (MRS) is visible (DIO mice [4]; DIO mice) [weeks]	Liver fat content (MRS detection) (DIO mice [4]; DIO mice fed 2 or 3 months, 30 mg/kg/d, and 3 mg/kg/d in 3 month fed mice, 4 weeks)	Average improvement in the HbA1c value [5]
CC#CCn1c(N2CCC[C@@H](N)C2)nc2c1c(=O)n(Cc1nc(C)c3ccccc3n1)c(=O)n2C [linagliptin, 1-[(4-methyl-quinazolin-2-yl)methyl]-3-methyl-7-(2-butyn-1-yl)-8-(3-(R)-amino-piperidin-1-yl)-xanthine]	16%-20%	20%-26%	2.2±0.13	25	2	reduced significantly	–
CN(C)C(=N)N=C(N)N [metformin]	–	–	–	–	–	–	1.0-1.5%
